Measurements from patent publication US6613553B1, “Enoyl reductases and methods of use thereof” (priority 2000, dated 2003).
Converted amounts (≈) assume the structure as drawn. “Also recorded” adds a separate entry of the source. Where two headings read alike, the source gives them in different places.

Legend:
[1] = test system: E. coli RJR108 (fabI[G93V]); test: triclosan MIC on LB agar plates; format: cell-based; conditions: Escherichia coli
[2] = test system: E. coli expressing FabL; conditions: FabL cloned from B. subtilis (ygaA)
From the text: However, such limited structural information alone cannot allow the identification since the overall identity of SDRs are low and the family size is large.

[3] = test system: E. coli W3110/pBluescript; test: triclosan MIC on LB agar plates; format: cell-based; conditions: Escherichia coli; E. coli W3110/pBluescript (empty vector); no growth in at least three experiments
[4] = test system: E. coli W3110/pfabK; test: triclosan MIC on LB agar plates; format: cell-based, Escherichia coli; conditions: for MIC: Escherichia coli
Description: FabI is the only enoyl reductase in E. coli and strain RJH13 harbors a fabI(Ts) allele and fails to grow at 42° C. [Heath et al., J. Biol. Chem., 273:30316 (1998)]. […] The pfabK plasmid was then introduced into the wild-type E. coli strain W3110. […] J. Infect. Control, 24:209 (1996)].

[5] = test system: P. aeruginosa; conditions: contains both FabI and FabK; cited from earlier work
[6] = molecular target: T1, FabI[G93V] mutant (Escherichia coli, UniProt P0AEK4, G93V); conditions: fails to form high-affinity FabI-NAD+-triclosan ternary complex; cited from earlier work
T1 sequence (P0AEK4 1-262 G93V): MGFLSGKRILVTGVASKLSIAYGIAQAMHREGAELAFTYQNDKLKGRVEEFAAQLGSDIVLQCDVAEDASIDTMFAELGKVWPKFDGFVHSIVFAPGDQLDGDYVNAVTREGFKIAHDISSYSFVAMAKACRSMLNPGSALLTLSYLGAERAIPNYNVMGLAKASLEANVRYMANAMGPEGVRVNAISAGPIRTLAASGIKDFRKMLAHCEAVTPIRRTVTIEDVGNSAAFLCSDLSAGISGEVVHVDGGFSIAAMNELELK

[7] = test system: B. subtilis; conditions: cited from earlier work
[8] = molecular target: FabI protein from P. aeruginosa (Pseudomonas aeruginosa, UniProt Q9ZFE4); conditions: cited from earlier work
[9] = test system: E. coli W3110/pfabI; test: triclosan MIC on LB agar plates; format: cell-based; conditions: Escherichia coli; E. coli W3110/pfabI (His-tag E. coli FabI, multi-copy plasmid)
[10] = molecular target: FabK (Streptococcus pneumoniae, UniProt Q9FBC5); format: biochemical
Description: A coupled enzyme system was employed to assay FabK by combining the purified E. coli proteins required to reconstitute a cycle of fatty acid synthesis with the exception of the FabI enoyl-ACP reductase. Reaction mixtures were first incubated to generate trans-2-butenoyl-ACP and then the indicated amounts of FabK were added as described in the Example below. Products were separated by conformationally sensitive gel electrophoresis and the bands visualized and quantitated using a Phosphorimager (FIG. 2C).
Enzymatic Assays: A reaction mixture containing 100 μM ACP, 1 mM β-mercaptoethanol, 100 μM acetyl-CoA, 50 μM [2-^14C]malonyl-CoA (56 mCi/mmol), 200 μM NADPH, 200 μM NADH, and 12.5 μg/ml of each FabD, FabH, FabG, FabA and FabZ in 0.1 M sodium phosphate pH 7.0 was incubated at 37° C. for 30 min to generate the trans-2-enoyl-ACP substrate before being aliquoted into individual reaction tubes to which FabK was added to the final amount as indicated for the Figures, above. The final reaction volume was 40 μL. Reactions were then incubated for 30 min at 37° C. and were stopped by placing into an ice slurry. Gel loading buffer was added, and the entire sample was loaded onto a 13% polyacrylamide gel containing 0.5 M urea [Heath and Rock, J. Biol. Chem., 271:1833 (1996)]. […]

[11] = test system: S. pneumoniae R6; test: triclosan MIC on brain heart infusion plates; format: cell-based; conditions: Streptococcus pneumoniae

FabK, sequence (Q9FBC5 entry or part of it): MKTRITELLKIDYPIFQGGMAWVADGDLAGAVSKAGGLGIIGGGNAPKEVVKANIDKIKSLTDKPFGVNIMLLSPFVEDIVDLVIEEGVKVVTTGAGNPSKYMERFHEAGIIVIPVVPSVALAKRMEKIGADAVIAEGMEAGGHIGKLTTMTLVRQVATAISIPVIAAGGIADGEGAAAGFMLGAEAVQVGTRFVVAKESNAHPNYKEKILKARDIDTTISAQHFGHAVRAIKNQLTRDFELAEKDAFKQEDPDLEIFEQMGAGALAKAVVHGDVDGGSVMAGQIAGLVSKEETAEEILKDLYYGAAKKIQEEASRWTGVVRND
FabI protein from P. aeruginosa, sequence (Q9ZFE4 whole entry): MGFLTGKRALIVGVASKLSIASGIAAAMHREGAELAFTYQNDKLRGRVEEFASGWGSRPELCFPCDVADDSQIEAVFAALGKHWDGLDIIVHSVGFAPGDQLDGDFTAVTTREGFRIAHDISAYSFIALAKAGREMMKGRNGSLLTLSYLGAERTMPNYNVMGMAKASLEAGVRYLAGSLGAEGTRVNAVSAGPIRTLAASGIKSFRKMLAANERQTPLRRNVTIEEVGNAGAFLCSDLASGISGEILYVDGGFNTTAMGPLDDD

For Oc1cc(Cl)ccc1Oc1ccc(Cl)cc1Cl [triclosan, 2,4,4′-Trichloro-2′-hydroxydiphenyl ether], the MIC [1] was 16 µg/mL (≈ 55.3 µM), the “triclosan resistance of E. coli expressing FabL” value [2] was “complete triclosan resistance” and the MIC [3] was 0.25 µg/mL (≈ 0.863 µM). For the same compound, the “triclosan resistance of E. coli expressing fabK” value ([4]; E. coli with fabK expression) was “completely resistant; also recorded: complete triclosan resistance”, the MIC ([4]; E. coli W3110/pfabK (His-tag S. pneumoniae FabK), read-out: MIC) was over 2000 µg/mL and the MIC ([4]; pfabK plasmid in strain W3110, read-out: minimum inhibitory concentration (MIC)) was over 2000 µg/mL. For the same compound, the “triclosan inhibition of P. aeruginosa” value [5] was “completely refractory”, the “inhibition of FabI[G93V] mutant by triclosan” value [6] was “still inhibited” and the MIC [7] was “about 2 μg/ml”. For the same compound, the “susceptibility of P. aeruginosa FabI to triclosan in vitro” value [8] was “highly susceptible”, the MIC [9] was 2 µg/mL (≈ 6.91 µM) and the “inhibition of FabK activity in the in vitro assay” value [10] was “did not inhibit”. For the same compound, the MIC ([11]; R6, S. pneumoniae) was about 2 µg/mL (≈ 6.91 µM) and the MIC ([11]; R6, S. pneumoniae R6, brain heart infusion plates) was 2 µg/mL (≈ 6.91 µM).
